# Measured values from article PMC7932537, “Quantitative profiling of protease specificity” (PLoS Computational Biology, 2021).
# Legend:
# MMP-2 = assay: Substrate phage display with NGS: relative probability (RP) of P3-P1' tetramer clusters; assay type: biochemical, human; conditions: for relative probability (RP) of matching tetramer: P3-P1' tetramer matching the MS detected MMP2 cleavage sequence, RP_above_4.5; for normalized RP - MMP2: normalized RP of matching tetramer; for MMP2 relative probability (RP): MMP2 tetramers from unique substrates, unrounded values
# MMP-9 = assay: as above; assay type: biochemical, human; conditions: for normalized RP - MMP9: normalized RP of matching tetramer; for corresponding MMP9 relative probability (RP): MMP2 tetramers from unique substrates, RP of same tetramer for MMP9
# [1] = RP of the P3-P1' tetramer cluster contained in the hexamer, 200 nM MMP-2, 2 h, 37°C, two rounds of selection
# [2] = MMP9, RP of the P3-P1' tetramer contained in the hexamer substrate (substrate phage display, NGS)
# [3] = RP of matching tetramer, common MMP2-9 selectome
# [4] = MMP9, RP of the P3-P1' tetramer matching the MS detected cleavage, RP above 4.7, substrate phage display with NGS
# [5] = RP of matching tetramer, common MMP2-9 selectome, RP above KL threshold
# [6] = MMP2, RP of matching P3-P1' tetramer, common set of MMP2-9 selectome, RP above KL threshold
# [7] = MMP9, RP of matching P3-P1' tetramer, common set of MMP2-9 selectome
# [8] = RP of the P3-P1' tetramer, MMP2 substrate phage display/NGS, tetramers of physiologic MEROPS substrates common to MMP2 and MMP9
# [9] = RP of the P3-P1' tetramer, MMP9 substrate phage display/NGS, tetramers of physiologic MEROPS substrates common to MMP2 and MMP9
# [10] = RP of matching tetramer, unique part of MMP2 selectome, RP above KL threshold
# [11] = RP of matching tetramer, unique part of MMP2 selectome
# [12] = RP according to MMP2, P3-P1' tetramer of unique physiologic MMP2 substrates from MEROPS
# [13] = RP according to MMP9, P3-P1' tetramer of unique physiologic MMP9 substrates from MEROPS
substance,measurement,setting,value
PEGLQG,relative probability (RP),MMP-2; [1],29.5031
same,relative probability (RP),MMP-9; [2],39.4116
PREL,relative probability (RP) (acc.to MMP2),MMP-2; [3],31.95
same,relative probability (RP),MMP-9; [4],44.67
same,relative probability (RP) (acc.to MMP9),MMP-9; [5],44.67
PLAV,relative probability (RP) (acc.to MMP2),MMP-2; [6],29.15
same,relative probability (RP) of matching tetramer,MMP-2,29.15
same,relative probability (RP) (acc.to MMP2),MMP-2; [3],29.15
same,relative probability (RP) (acc.to MMP9),MMP-9; [7],44.77
same,relative probability (RP),MMP-9; [4],44.77
same,relative probability (RP) (acc.to MMP9),MMP-9; [5],44.77
PQGF,relative probability (RP) (acc.to MMP2),MMP-2; [8],27.05
same,relative probability (RP) (acc.to MMP9),MMP-9; [9],37.1
HQKL,relative probability (RP) (acc.to MMP2),MMP-2; [8],2.29
same,relative probability (RP) (acc.to MMP9),MMP-9; [9],0.06
EGPAGL,relative probability (RP),MMP-2; [1],36.0156
same,relative probability (RP),MMP-9; [2],47.2274
PANA,relative probability (RP) of matching tetramer,MMP-2,17.73
same,relative probability (RP) (acc.to MMP2),MMP-2; [10],17.73
same,normalized RP - MMP2,MMP-2; unique part of MMP2 selectome,0.4855
same,relative probability (RP) (acc.to MMP9),MMP-9; [11],2.68
same,normalized RP - MMP9,MMP-9; unique part of MMP2 selectome,0.05116
PMAL,avg_RP,"MMP-2; MMP2 - no binning, average relative probability of the tetramer, redundant tetramers averaged out",34.1737
same,relative probability (RP) (acc.to MMP2),MMP-2; [3],34.17
same,relative probability (RP),MMP-9; [4],48.95
same,relative probability (RP) (acc.to MMP9),MMP-9; [5],48.95
PVGMKG,relative probability (RP),MMP-2; [1],32.557
same,relative probability (RP),MMP-9; [2],44.5811
PSLQ,MMP2 relative probability (RP),MMP-2,7.654
same,Relative probability (RP) rank,MMP-2; [12],6015
same,relative probability (RP),MMP-2; [12],7.65
same,relative probability (RP) (acc.to MMP2),MMP-2; [8],7.65
same,corresponding MMP9 relative probability (RP),MMP-9,1.544
same,Relative probability (RP) rank,MMP-9; [13],11624
same,relative probability (RP),MMP-9; [13],1.54
same,relative probability (RP) (acc.to MMP9),MMP-9; [9],1.54
QQPQAL,relative probability (RP),MMP-2; [1],34.4508
same,relative probability (RP),MMP-9; [2],48.457
PAGVKA,relative probability (RP),MMP-2; [1],28.6381
same,relative probability (RP),MMP-9; [2],31.0803
PHGLAT,relative probability (RP),MMP-2; [1],32.9009
same,relative probability (RP),MMP-9; [2],46.2798
PRGY,relative probability (RP) (acc.to MMP2),MMP-2; [6],34.02
same,relative probability (RP) of matching tetramer,MMP-2,34.02
same,relative probability (RP) (acc.to MMP2),MMP-2; [3],34.02
same,relative probability (RP) (acc.to MMP9),MMP-9; [7],46.79
same,relative probability (RP),MMP-9; [4],46.79
same,relative probability (RP) (acc.to MMP9),MMP-9; [5],46.79
PGPAGQ,relative probability (RP),MMP-2; [1],28.0249
same,relative probability (RP),MMP-9; [2],28.6679
QPPLPL,relative probability (RP),MMP-2; [1],35.0814
same,relative probability (RP),MMP-9; [2],49.0268
LAHA,MMP2 relative probability (RP),MMP-2,10.8276
same,Relative probability (RP) rank,MMP-2; [12],4607
same,relative probability (RP),MMP-2; [12],10.83
same,relative probability (RP),MMP-2; tetramer annotation of MMP-2 cleavage sites in physiologic substrates from MEROPS,10.83
same,corresponding MMP9 relative probability (RP),MMP-9,0.5961
AHNLSS,relative probability (RP),MMP-2; [1],23.7113
same,relative probability (RP),MMP-9; [2],29.6602
ANPV,relative probability (RP) (acc.to MMP2),MMP-2; [8],0.04
same,relative probability (RP) (acc.to MMP9),MMP-9; [9],0.33
PEAI,relative probability (RP) (acc.to MMP2),MMP-2; [8],22.52
same,relative probability (RP) (acc.to MMP9),MMP-9; [9],36.36
ETPRPW,relative probability (RP),MMP-2; [1],32.1109
same,relative probability (RP),MMP-9; [2],41.1124
PESW,relative probability (RP) of matching tetramer,MMP-2,4.73
same,relative probability (RP) (acc.to MMP2),MMP-2; [10],4.73
same,normalized RP - MMP2,MMP-2; unique part of MMP2 selectome,0.1295
same,relative probability (RP) (acc.to MMP9),MMP-9; [11],1.77
same,normalized RP - MMP9,MMP-9; unique part of MMP2 selectome,0.03379
PVLL,relative probability (RP) (acc.to MMP2),MMP-2; [6],15.16
same,relative probability (RP) of matching tetramer,MMP-2,15.16
same,relative probability (RP) (acc.to MMP2),MMP-2; [3],15.16
same,relative probability (RP) (acc.to MMP9),MMP-9; [7],19.22
same,relative probability (RP),MMP-9; [4],19.22
same,relative probability (RP) (acc.to MMP9),MMP-9; [5],19.22
TTPSPI,relative probability (RP),MMP-2; [1],32.5241
same,relative probability (RP),MMP-9; [2],43.889
PAVM,MMP2 relative probability (RP),MMP-2,17.6491
same,Relative probability (RP) rank,MMP-2; [12],2339
same,relative probability (RP),MMP-2; [12],17.65
same,corresponding MMP9 relative probability (RP),MMP-9,4.1214
RPEDLR,relative probability (RP),MMP-2; [1],6.012
same,relative probability (RP),MMP-9; [2],13.0748
PTGV,relative probability (RP) (acc.to MMP2),MMP-2; [8],13.32
same,relative probability (RP) (acc.to MMP9),MMP-9; [9],11.14
KSPLRQ,relative probability (RP),MMP-2; [1],11.8624
same,relative probability (RP),MMP-9; [2],29.0862
KSPVGV,relative probability (RP),MMP-2; [1],27.6556
same,relative probability (RP),MMP-9; [2],34.3287
RRPRPL,relative probability (RP),MMP-2; [1],34.3303
same,relative probability (RP),MMP-9; [2],46.7888
PQPLDL,relative probability (RP),MMP-2; [1],30.3595
same,relative probability (RP),MMP-9; [2],47.1306
